Test results reported in the NIST ThermoML archive (doi:10.1021/acs.jced.7b00466).
Numbers after ± are expanded uncertainties.

Conditions: for viscosity / speed of sound / mass density: 102 kPa, Liquid; for viscosity: Concentric cylinders viscometry; for speed of sound: Frequency=3 MHz, Sing-around technique in a fixed-path interferometer; for mass density: Vibrating tube method; for surface tension liquid-gas: Pendant drop shape

Row | Compound | viscosity (293.15 K) | speed of sound (293.15 K) | mass density (293.15 K) | viscosity (303.15 K) | speed of sound (303.15 K) | mass density (303.15 K) | viscosity (313.15 K) | speed of sound (313.15 K) | mass density (313.15 K) | viscosity (323.15 K) | speed of sound (323.15 K) | mass density (323.15 K) | viscosity (333.15 K) | speed of sound (333.15 K) | mass density (333.15 K) | viscosity (343.15 K) | mass density (343.15 K) | other results
1 | CCCCc1ccccc1 [butylbenzene] | 1.06 ± 0.01 mPa·s | 1352.8 ± 1 m/s | 860.6 ± 0.19 kg/m3 | 0.915 ± 0.012 mPa·s | 1314 ± 1 m/s | 852.56 ± 0.19 kg/m3 | 0.801 ± 0.012 mPa·s | 1275.8 ± 1 m/s | 844.5 ± 0.19 kg/m3 | 0.708 ± 0.011 mPa·s | 1238.2 ± 1 m/s | 836.41 ± 0.19 kg/m3 | 0.631 ± 0.011 mPa·s | 1201.4 ± 1 m/s | 828.29 ± 0.19 kg/m3 | 0.566 ± 0.011 mPa·s | 820.3 ± 0.5 kg/m3 | surface tension liquid-gas (294.4 K): 28.8 ± 0.3 mN/m
2 | CCCCC1CCCCC1 [butylcyclohexane] | 1.31 ± 0.01 mPa·s | 1327.7 ± 1 m/s | 799.33 ± 0.2 kg/m3 | 1.11 ± 0.01 mPa·s | 1287.9 ± 1 m/s | 791.82 ± 0.2 kg/m3 | 0.961 ± 0.012 mPa·s | 1248.7 ± 1 m/s | 784.28 ± 0.2 kg/m3 | 0.837 ± 0.012 mPa·s | 1210.3 ± 1 m/s | 776.7 ± 0.2 kg/m3 | 0.736 ± 0.011 mPa·s | 1172.6 ± 1 m/s | 769.09 ± 0.2 kg/m3 | 0.653 ± 0.011 mPa·s | 761.4 ± 0.5 kg/m3 | surface tension liquid-gas (294.5 K): 26.6 ± 0.3 mN/m
3 | CCCCCCCCCCCC [dodecane] | 1.47 ± 0.02 mPa·s | 1297.3 ± 1.3 m/s | 748.79 ± 1.5 kg/m3 | 1.23 ± 0.01 mPa·s | 1259.1 ± 1.3 m/s | 741.54 ± 1.5 kg/m3 | 1.05 ± 0.01 mPa·s | 1221.5 ± 1.3 m/s | 734.25 ± 1.5 kg/m3 | 0.902 ± 0.012 mPa·s | 1184.4 ± 1.3 m/s | 726.94 ± 1.5 kg/m3 | 0.786 ± 0.012 mPa·s | 1148 ± 1.3 m/s | 719.59 ± 1.5 kg/m3 | 0.69 ± 0.012 mPa·s | 712.2 ± 4.3 kg/m3 | surface tension liquid-gas (293.6 K): 25 ± 0.3 mN/m
4 | CCCCCCCCCCCCCCCC [hexadecane] | 3.43 ± 0.02 mPa·s | 1356.4 ± 1 m/s | 773.42 ± 0.32 kg/m3 | 2.72 ± 0.02 mPa·s | 1319 ± 1 m/s | 766.47 ± 0.32 kg/m3 | 2.2 ± 0.02 mPa·s | 1282.6 ± 1 m/s | 759.55 ± 0.32 kg/m3 | 1.82 ± 0.01 mPa·s | 1246.9 ± 1 m/s | 752.63 ± 0.32 kg/m3 | 1.54 ± 0.01 mPa·s | 1212 ± 1 m/s | 745.71 ± 0.32 kg/m3 | 1.31 ± 0.01 mPa·s | 738.8 ± 0.9 kg/m3 | surface tension liquid-gas (294 K): 27.2 ± 0.3 mN/m
5 | CCCCCCc1ccccc1 [hexylbenzene] | 1.68 ± 0.01 mPa·s | 1374.7 ± 1.1 m/s | 857.69 ± 0.7 kg/m3 | 1.41 ± 0.01 mPa·s | 1337.3 ± 1.1 m/s | 850.09 ± 0.7 kg/m3 | 1.2 ± 0.01 mPa·s | 1300.5 ± 1.1 m/s | 842.49 ± 0.7 kg/m3 | 1.03 ± 0.01 mPa·s | 1264.3 ± 1.1 m/s | 834.87 ± 0.7 kg/m3 | 0.901 ± 0.012 mPa·s | 1228.8 ± 1.1 m/s | 827.48 ± 0.7 kg/m3 | 0.794 ± 0.012 mPa·s | 819.5 ± 2 kg/m3 | surface tension liquid-gas (294.1 K): 29.4 ± 0.4 mN/m
6 | Cc1ccccc1 [toluene] | – | – | – | – | – | – | – | – | – | – | – | – | – | – | – | – | – | surface tension liquid-gas (293 K): 28.6 ± 0.3 mN/m
